Data reported in patent US6518265B1, “1H-imidazopyridine derivatives” (Hokuriku Seiyaku Co., Ltd., priority 1998, dated 2003).
Counter-ions that a name gives are not always drawn.

| melting point | SMILES |
| --- | --- |
| 261 to 272 °C (dec.) | Clc1nc2ccccc2c2c1nc(-c1ccccc1)n2CC[C@@H]1CCCN1 (as salt: fumarate) (hydrate or solvate) [Example 134] |
| 161 to 162 °C | CNc1nc2ccccc2c2c1nc(-c1ccccc1)n2CCC1CCN(C(=O)OC(C)(C)C)CC1 (hydrate or solvate) [Example 95] |
| 224 to 224.5 °C | Clc1nc2ccsc2c2c1nc(-c1ccccc1)n2CCC1CCNCC1 (as salt: trifluoroacetate) (hydrate or solvate) [Example 137] |
| 225 to 232 °C (dec.) | Clc1nc2c(c3c1nc(-c1ccccc1)n3CCC1CCNCC1)CCC2 (as salt: trifluoroacetate) [Example 136] |
| 215 to 218 °C (dec.) | CC(C)(C)OC(=O)N1CCC(CCn2c(-c3ccccc3)nc3c(Cl)nc4c(c32)CCCC4)CC1 [Example 33] |
| 201.5 to 202 °C | Cc1ccc(S(=O)(=O)N2CCC(CCn3cnc4c(Oc5ccccc5)nc5ccccc5c43)CC2)cc1 [Example 197] |
| 215 to 220 °C (dec.) | CNC(=S)N1CCC(CCn2c(-c3ccccc3)nc3c(Cl)nc4ccccc4c32)CC1 [Example 201, 4-[2-(4-Chloro-2-phenyl-1H-imidazo[4,5-c]quinolin-1-yl)ethyl]-N-methyl-1-piperidinecarbothioamide] |
| 132 to 133 °C | CCOC(=O)N1CCC(CCn2cnc3c(Oc4ccccc4)nc4ccccc4c32)CC1 [Example 198] |
| 215 to 221 °C (dec.) | Clc1nc2c(c3c1nc(-c1ccccc1)n3CCC1CCNCC1)CCCC2 (as salt: trifluoroacetate) [Example 135] |
| 199 to 200 °C | CC(C)(C)OC(=O)N1CCC(CCn2c(-c3ccccc3)nc3c(Cl)nc4ccsc4c32)CC1 [Example 35] |
